Data from PMC8231556, “Inhibiting Endothelial Cell Function in Normal and Tumor Angiogenesis Using BMP Type I Receptor Macrocyclic Kinase Inhibitors” (Cancers, 2021).

Key:
[1] = biological target: T1, PDK1 (Homo sapiens, UniProt O15530); test: radiometric kinase profiling (33 PanQinase); format: biochemical; conditions: read-out: Inhibitory effect (%) PDK1
T1 construct: purchased ProQinase (33PanQinase Activity Assay)
T1 sequence (O15530 1-556): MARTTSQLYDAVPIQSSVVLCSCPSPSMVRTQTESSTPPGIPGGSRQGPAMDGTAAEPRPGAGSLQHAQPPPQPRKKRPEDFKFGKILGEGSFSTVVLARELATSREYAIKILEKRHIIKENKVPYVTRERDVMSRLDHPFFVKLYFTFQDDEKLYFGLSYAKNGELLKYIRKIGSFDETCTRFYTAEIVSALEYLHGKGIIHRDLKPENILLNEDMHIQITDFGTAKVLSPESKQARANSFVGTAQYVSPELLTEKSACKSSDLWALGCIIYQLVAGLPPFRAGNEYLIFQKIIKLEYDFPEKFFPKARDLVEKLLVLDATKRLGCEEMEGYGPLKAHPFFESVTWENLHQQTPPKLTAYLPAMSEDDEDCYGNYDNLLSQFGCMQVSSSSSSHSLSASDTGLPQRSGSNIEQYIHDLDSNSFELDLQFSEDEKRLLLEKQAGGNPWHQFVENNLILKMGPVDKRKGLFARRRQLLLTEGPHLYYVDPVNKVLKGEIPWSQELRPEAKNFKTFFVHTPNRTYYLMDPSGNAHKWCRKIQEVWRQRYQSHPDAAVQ
Experimental: (§1) The kinase inhibition profile of the compounds was determined by testing 96 protein kinases’ activity using a radiometric protein kinase assay (33 PanQinase® Activity Assay, Proqinase, Germany). In brief, 10 µL of non-radioactive ATP solution (in H2O), 25 µL of assay buffer/[γ-33 P]-ATP mixture, 5 µL of 0.1 μM the tested compound in 10% DMSO and 10 µL of enzyme/substrate were mixed in 96-well FlashPlatesTM (Perkin Elmer, Boston, MA, USA). The reaction was conducted at 30 °C for 60 min. To stop the reaction, 50 µL of 2% (v/v) H3PO4 was added into the protein kinase reaction cocktails. After which, with 200 µL 0.9% (w/v) NaCl twice, the incorporation of ^33 Pi (counting of “cpm”) was determined with a microplate scintillation counter (Wallac Microbeta, Boston, MA, USA). All protein kinase assays were performed using a BeckmanCoulter Biomek 2000/SL robotic system (Brea, CA, USA). The residual activity (in %) for each compound was normalized to 100% enzyme activity (untreated control) and background (negative control).

[2] = biological target: T2, PIM2 (Homo sapiens, UniProt Q9P1W9); test: radiometric kinase profiling (33 PanQinase); format: biochemical; conditions: read-out: Inhibitory effect (%) PIM2
T2 construct: purchased ProQinase (33PanQinase Activity Assay)
T2 sequence (Q9P1W9 whole entry): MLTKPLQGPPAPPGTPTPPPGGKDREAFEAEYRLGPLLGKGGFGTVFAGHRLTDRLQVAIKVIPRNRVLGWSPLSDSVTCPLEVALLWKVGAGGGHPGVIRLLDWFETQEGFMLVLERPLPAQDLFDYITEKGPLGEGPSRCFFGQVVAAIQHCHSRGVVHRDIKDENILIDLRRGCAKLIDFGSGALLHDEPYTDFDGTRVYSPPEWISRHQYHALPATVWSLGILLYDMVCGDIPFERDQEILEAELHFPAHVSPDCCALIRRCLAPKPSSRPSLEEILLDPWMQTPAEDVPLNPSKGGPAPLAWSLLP
Experimental: as §1

[3] = biological target: T3, AURKB (Homo sapiens, UniProt Q96GD4); test: radiometric kinase profiling (33 PanQinase); format: biochemical; conditions: read-out: Inhibitory effect (%) AURKB
T3 construct: purchased Proqinase, Germany
T3 sequence (Q96GD4 whole entry): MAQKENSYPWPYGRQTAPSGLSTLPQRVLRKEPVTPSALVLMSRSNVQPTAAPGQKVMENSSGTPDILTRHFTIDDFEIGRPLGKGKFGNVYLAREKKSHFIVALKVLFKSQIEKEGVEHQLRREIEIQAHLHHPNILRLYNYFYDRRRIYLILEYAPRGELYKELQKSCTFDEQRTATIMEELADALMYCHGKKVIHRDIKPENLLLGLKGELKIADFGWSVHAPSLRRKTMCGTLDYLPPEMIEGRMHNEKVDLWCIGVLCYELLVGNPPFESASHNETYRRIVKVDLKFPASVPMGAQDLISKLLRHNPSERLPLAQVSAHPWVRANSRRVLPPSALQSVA
Experimental: as §1

[4] = biological target: T4, MAPK9 (Homo sapiens, UniProt P45984); test: radiometric kinase profiling (33 PanQinase); format: biochemical; conditions: read-out: Inhibitory effect (%) MAPK9
T4 construct: purchased ProQinase (33PanQinase Activity Assay)
T4 sequence (P45984 whole entry): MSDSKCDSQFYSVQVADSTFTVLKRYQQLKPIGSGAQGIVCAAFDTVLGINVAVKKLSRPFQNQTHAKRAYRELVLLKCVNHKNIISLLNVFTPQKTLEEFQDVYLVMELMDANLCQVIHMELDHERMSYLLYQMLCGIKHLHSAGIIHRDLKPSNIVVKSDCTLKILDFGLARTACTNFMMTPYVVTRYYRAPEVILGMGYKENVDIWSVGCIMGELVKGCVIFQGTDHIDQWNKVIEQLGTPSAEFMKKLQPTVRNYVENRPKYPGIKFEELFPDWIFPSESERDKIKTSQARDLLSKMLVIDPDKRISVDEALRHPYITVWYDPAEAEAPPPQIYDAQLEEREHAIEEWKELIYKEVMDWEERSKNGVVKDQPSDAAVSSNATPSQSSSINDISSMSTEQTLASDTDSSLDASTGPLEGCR
Experimental: as §1

[5] = biological target: T5, CLK2 (Homo sapiens, UniProt P49760); test: radiometric kinase profiling (33 PanQinase); format: biochemical; conditions: read-out: Inhibitory effect (%) CLK2
T5 construct: purchased Proqinase, Germany
T5 sequence (P49760 whole entry): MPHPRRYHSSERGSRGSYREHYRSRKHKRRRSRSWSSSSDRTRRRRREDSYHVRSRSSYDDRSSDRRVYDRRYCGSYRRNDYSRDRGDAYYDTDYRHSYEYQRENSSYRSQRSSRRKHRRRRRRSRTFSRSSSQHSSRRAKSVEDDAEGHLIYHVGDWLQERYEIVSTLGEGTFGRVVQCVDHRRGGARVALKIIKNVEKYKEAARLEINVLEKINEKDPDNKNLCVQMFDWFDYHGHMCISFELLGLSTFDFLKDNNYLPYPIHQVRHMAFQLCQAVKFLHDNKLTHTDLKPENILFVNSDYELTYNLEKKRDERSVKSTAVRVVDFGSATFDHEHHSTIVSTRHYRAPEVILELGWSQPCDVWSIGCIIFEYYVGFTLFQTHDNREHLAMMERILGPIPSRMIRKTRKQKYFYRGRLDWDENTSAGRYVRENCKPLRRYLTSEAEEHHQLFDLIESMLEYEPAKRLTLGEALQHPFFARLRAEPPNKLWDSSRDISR
Experimental: as §1

[6] = biological target: T6, EGFR (Homo sapiens, UniProt P00533); test: radiometric kinase profiling (33 PanQinase); format: biochemical; conditions: read-out: Inhibitory effect (%) EGFR
T6 construct: purchased Proqinase, Germany
T6 sequence (P00533 25-1210): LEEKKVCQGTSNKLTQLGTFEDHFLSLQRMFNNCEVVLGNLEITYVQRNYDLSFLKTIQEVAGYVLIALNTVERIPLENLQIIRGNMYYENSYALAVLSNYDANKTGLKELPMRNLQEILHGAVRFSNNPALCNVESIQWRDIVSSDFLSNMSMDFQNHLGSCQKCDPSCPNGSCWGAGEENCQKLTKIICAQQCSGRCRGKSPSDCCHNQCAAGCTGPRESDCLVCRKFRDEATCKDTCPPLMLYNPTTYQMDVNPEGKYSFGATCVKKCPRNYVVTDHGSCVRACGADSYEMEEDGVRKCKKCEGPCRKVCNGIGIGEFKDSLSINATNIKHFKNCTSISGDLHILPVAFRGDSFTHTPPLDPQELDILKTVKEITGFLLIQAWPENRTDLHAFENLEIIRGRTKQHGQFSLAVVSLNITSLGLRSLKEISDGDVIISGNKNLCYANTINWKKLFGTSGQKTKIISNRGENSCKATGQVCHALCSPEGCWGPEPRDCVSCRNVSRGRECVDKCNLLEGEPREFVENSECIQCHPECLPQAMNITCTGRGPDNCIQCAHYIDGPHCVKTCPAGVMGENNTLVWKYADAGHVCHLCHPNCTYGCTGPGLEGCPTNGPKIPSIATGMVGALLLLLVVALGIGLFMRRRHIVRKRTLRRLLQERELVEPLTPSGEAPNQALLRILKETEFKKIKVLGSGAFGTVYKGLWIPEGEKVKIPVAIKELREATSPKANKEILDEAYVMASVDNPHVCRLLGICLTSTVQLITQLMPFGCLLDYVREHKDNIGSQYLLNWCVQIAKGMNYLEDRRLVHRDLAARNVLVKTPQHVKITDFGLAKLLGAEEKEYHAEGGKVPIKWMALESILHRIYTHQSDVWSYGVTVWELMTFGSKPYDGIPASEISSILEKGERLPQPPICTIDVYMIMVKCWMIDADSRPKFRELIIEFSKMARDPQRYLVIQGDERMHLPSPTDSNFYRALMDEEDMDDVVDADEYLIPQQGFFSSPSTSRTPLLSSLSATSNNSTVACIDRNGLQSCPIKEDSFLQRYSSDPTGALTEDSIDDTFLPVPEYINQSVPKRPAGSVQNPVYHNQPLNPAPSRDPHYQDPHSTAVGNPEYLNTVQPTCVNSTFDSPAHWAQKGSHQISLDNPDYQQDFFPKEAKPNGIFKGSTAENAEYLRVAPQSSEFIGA
Experimental: as §1

[7] = biological target: T7, CDK4_cyclinD1 (Homo sapiens, UniProt P11802); test: radiometric kinase profiling (33 PanQinase); format: biochemical; conditions: read-out: Inhibitory effect (%) CDK4_cyclinD1
T7 construct: purchased Proqinase, Germany
T7 sequence (P11802 whole entry): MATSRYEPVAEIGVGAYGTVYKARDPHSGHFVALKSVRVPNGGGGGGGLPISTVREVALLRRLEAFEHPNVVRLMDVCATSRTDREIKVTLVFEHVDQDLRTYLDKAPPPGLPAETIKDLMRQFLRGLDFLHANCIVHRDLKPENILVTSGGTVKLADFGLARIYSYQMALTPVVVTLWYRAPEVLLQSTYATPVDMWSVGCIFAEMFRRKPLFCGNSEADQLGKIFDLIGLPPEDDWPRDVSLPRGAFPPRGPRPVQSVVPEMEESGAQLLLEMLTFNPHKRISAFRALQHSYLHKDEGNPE
T7 sequence (P24385 whole entry partner): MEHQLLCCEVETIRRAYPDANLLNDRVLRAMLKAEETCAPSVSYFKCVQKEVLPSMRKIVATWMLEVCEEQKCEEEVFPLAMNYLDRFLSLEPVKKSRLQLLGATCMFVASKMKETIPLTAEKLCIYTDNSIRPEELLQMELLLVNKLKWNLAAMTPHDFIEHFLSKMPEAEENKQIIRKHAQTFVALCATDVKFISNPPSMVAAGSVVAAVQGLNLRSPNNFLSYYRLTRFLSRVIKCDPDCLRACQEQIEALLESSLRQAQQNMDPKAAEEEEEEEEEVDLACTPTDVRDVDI
Experimental: as §1

[8] = biological target: T8, SGK3 (Homo sapiens, UniProt Q96BR1); test: radiometric kinase profiling (33 PanQinase); format: biochemical; conditions: read-out: Inhibitory effect (%) SGK3
T8 construct: purchased ProQinase (33PanQinase Activity Assay)
T8 sequence (Q96BR1 1-496): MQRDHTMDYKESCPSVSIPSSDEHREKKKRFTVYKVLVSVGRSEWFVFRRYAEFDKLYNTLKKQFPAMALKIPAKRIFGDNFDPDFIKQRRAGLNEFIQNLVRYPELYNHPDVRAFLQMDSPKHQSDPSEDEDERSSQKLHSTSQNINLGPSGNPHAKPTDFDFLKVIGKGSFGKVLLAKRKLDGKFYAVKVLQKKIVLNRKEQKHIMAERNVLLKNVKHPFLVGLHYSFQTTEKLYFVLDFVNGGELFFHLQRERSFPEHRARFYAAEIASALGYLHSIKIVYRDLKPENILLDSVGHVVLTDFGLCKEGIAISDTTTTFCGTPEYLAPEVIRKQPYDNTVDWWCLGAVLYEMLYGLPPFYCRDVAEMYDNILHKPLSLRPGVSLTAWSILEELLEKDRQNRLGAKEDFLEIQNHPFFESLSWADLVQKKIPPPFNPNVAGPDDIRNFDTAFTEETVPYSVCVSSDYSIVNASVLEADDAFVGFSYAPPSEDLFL
Experimental: as §1

[9] = test system: BMP9-induced BRE-Luc activity; test: BRE-luciferase transcriptional reporter assay, BMP9-stimulated EA.hy926-BRE-Luc cells; format: cell-based, human; conditions: for BMP9-induced BRE-Luc activity (fold): BMP9 1 ng/mL alone 5.0 fold
Description: The BMP responsive element (BRE)-driven transcriptional luciferase reporter, which contains SMAD1/5-SMAD4 responsive elements of the ID1 gene promoter, was used to assess the activation of the BMP/SMAD signaling pathway. A lentiviral vector carrying this reporter construct (pRRL-BRE-Luc) was generated by digesting the MLP-BRE-Luc plasmid with KpnI and SalI and then inserted into the lentivirus vector pRRL-CMV digested with XhoI and KpnI. Lentiviral particles were made using HEK 293 T cells, and EA.hy926 cells were transduced to generate BRE-Luc stably expressing cells, named as EA.hy926-BRE-Luc.
EA.hy926-BRE-Luc cells were seeded at approximately 5 × 10^5 cells/well in a 24-well plate. Cells were serum-starved overnight by incubating with a serum-free medium. After starvation, the cells were pre-incubated with the compounds for 30 min and subsequently stimulated overnight with ligands (or vehicle control). Thereafter, the cells were lysed, and luciferase activity was measured with the firefly luciferase assay System kit (E1501, Promega Corporation, Madison, WI, USA) using a PerkinElmer luminometer. The firefly luciferase activity was normalized to protein content, which was determined using the DC protein assay kit (5000111, Bio-Rad, Hercules, CA, USA).

Compound | inhibition at 0.1 µM [1] | inhibition at 0.1 µM [2] | inhibition at 0.1 µM [3] | inhibition at 0.1 µM [4] | inhibition at 0.1 µM [5] | inhibition at 0.1 µM [6] | inhibition at 0.1 µM [7] | inhibition at 0.1 µM [8] | effect on BMP9-induced BRE activity ([9]; 0.5 μM compound) | effect on BMP9-induced BRE activity ([9]; 1 μM compound) | BMP9-induced BRE-Luc activity (fold) ([9]; 0.1 μM compound) | BMP9-induced BRE-Luc activity (fold) ([9]; 0.5 μM compound) | BMP9-induced BRE-Luc activity (fold) ([9]; 1 μM compound)
c1ccc2c(-c3cnn4cc(-c5ccc(N6CCNCC6)cc5)cnc34)ccnc2c1 [LDN-193189, reference compound] | -8.72% | 6.22% | 3.93% | -21.3% | 34.2% | 2.46% | -10.1% | -26.9% | significantly inhibited | nearly decreased to basal levels | – | – | –
CN1CCc2cccc(c2)Nc2nccc(n2)N2CCCc3cc(ccc32)C1 [OD16] | -7.16% | -5.63% | 4.48% | -11% | -10% | -13% | 20.3% | 2.44% | – | nearly completely inhibited | 2.1 fold | – | –
CN1CCC(=O)NCCNc2ccn3ncc(c3n2)-c2cccc(c2)C1 [OD29] | -1.4% | 1.97% | -11.2% | 5.44% | 7.62% | -8.91% | -13.8% | -21.9% | – | – | – | 3.1 fold | 0.9 fold
